According to patent publication US20210078917A1, “FUNGICIDAL FERTILIZER COMPOSITION COMPRISING POTASSIUM PHOSPHITE AND GAMMA-POLY-GLUTAMIC ACID” (JIANGSU HUIFENG BIO AGRICULTURE CO., LTD., priority 2018, published 2021):

Tests used:
[1] = tested on: potatoes; assay: Yield increase test of potatoes (field); assay type: in vivo, potato
Experimental: (§1) (1) Yield increase and disease control test of potatoes with fungicidal fertilizer composition of the present invention. This test was conducted in 2017 in Anding District, Dingxi City, Gansu Province. This area is a typical semi-arid rain-fed agricultural area. The soil type is loessial soil, with deep soil layers and uniform soil fertility. The previous crop is rape. The fertilizer of the present invention was totally applied as a base fertilizer at a time. […] Ridging after flat planting in wide and narrow rows was adopted. The wide row spacing was 60 cm, the narrow row spacing was 30 cm, the plant spacing was 30 cm, the sowing depth was 15 cm, and the plant density was 58,000 plants·hm^−2. Other field management was the same as that in large area of field. The number of large- and medium-sized potatoes ([…]) per plant was randomly determined, and the relative increase rate of large- and medium-sized potatoes was determined. The yield per mu and the relative increase rate of yield were determined. The crude starch content and increase rate of crude starch content were determined. The control effect on root rot of potatoes was also determined.

[2] = tested on: root rot of potatoes; assay: Disease control test of potatoes (field), root rot; assay type: in vivo, potato
Experimental: as §1

[3] = tested on: Chinese wolfberry; assay: Yield increase and quality test of Chinese wolfberry; assay type: in vivo, Chinese wolfberry "Ningqi No. 7"
Experimental: The test was carried out in a Chinese wolfberry planting test plot in Koluke Town, Delingha City, Qinghai Province. Chinese wolfberry plants were all three-year-old seedlings of variety “Ningqi No. 7” at a density of 270 plants/667 m^2. This experiment was designed such that different plots were arranged in order. […]. Fertilization method: It was applied together with other base fertilizers, by laying the fertilizer at the bottom of the planting pit, where the depth of the trench was 70 cm, the diameter of the pit was 80 cm, and the soil was mixed in and applied at the bottom when applying fertilizer. The yield, quality and control effect on disease on fresh Chinese wolfberry fruit were determined.

[4] = tested on: Disease (black fruit); assay: Disease control test of Chinese wolfberry, black fruit; assay type: in vivo, Chinese wolfberry "Ningqi No. 7"
Experimental: The test was carried out in a Chinese wolfberry planting test plot in Koluke Town, Delingha City, Qinghai Province. Chinese wolfberry plants were all three-year-old seedlings of variety “Ningqi No. 7” at a density of 270 plants/667 m^2. This experiment was designed such that different plots were arranged in order. […] Fertilization method: It was applied together with other base fertilizers, by laying the fertilizer at the bottom of the planting pit, where the depth of the trench was 70 cm, the diameter of the pit was 80 cm, and the soil was mixed in and applied at the bottom when applying fertilizer. The yield, quality and control effect on disease on fresh Chinese wolfberry fruit were determined.

[5] = tested on: peanut; assay: Yield increase and quality test of peanut; assay type: in vivo
Experimental: (§2) […]. Fertilization method: The fertilizer was applied three times by spraying during the flowering and fruiting period. The yield, quality and control effect on disease on peanut were determined.

[6] = tested on: stem rot of peanut; assay: Disease control test of peanut, stem rot; assay type: in vivo
Experimental: as §2

[7] = tested on: Disease (blight); assay: Disease control test of pepper, blight; assay type: in vivo; conditions: 40 g active ingredient per mu
Experimental: This fertilizer was applied on the basis of conventional fertilization in each treatment area. Fertilization method: The fertilizer was applied by spraying during the seedling stage of pepper. The yield, quality and control effect on disease on pepper were determined.

[8] = tested on: tomato; assay: Yield increase and quality test of tomato; assay type: in vivo; conditions: 60 g active ingredient per mu
Experimental: […]. This fertilizer was applied on the basis of conventional fertilization in each treatment area. Fertilization method: The fertilizer was applied by spraying during the seedling stage of tomato. The yield, quality and control effect on disease on tomato were determined.

[9] = tested on: Disease (rot); assay: Disease control test of tomato, rot; assay type: in vivo; conditions: 60 g active ingredient per mu
Experimental: This fertilizer was applied on the basis of conventional fertilization in each treatment area. Fertilization method: The fertilizer was applied by spraying during the seedling stage of tomato. The yield, quality and control effect on disease on tomato were determined.

[10] = amount 50 g active ingredient/mu
[11] = amount 100 g active ingredient/mu
[12] = amount 400 g active ingredient/mu

γ-poly-glutamic acid
Crude starch content [1, 10]: 16.1% | Fresh weight of large- and medium-sized potatoes [1, 10]: 481.3 g/plant | Increase rate of crude starch content [1, 10]: 1.9% | Increase rate of large- and medium-sized potatoes [1, 10]: 6.5% | Increase rate of yield [1, 10]: 4.4% | Yield [1, 10]: 1343 kg/mu | Crude starch content [1, 11]: 16.4% | Fresh weight of large- and medium-sized potatoes [1, 11]: 492.6 g/plant | Increase rate of crude starch content [1, 11]: 3.8% | Increase rate of large- and medium-sized potatoes [1, 11]: 9.0% | Increase rate of yield [1, 11]: 7.5% | Yield [1, 11]: 1383 kg/mu | Crude starch content [1, 12]: 17.1% | Fresh weight of large- and medium-sized potatoes [1, 12]: 499.3 g/plant | Increase rate of crude starch content [1, 12]: 8.2% | Increase rate of large- and medium-sized potatoes [1, 12]: 10.5% | Increase rate of yield [1, 12]: 10.6% | Yield [1, 12]: 1422 kg/mu | Control effect ([2]; amount 50 g active ingredient/mu, 10 days after application): 9.87% | Control effect ([2]; amount 50 g active ingredient/mu, 30 days after application): 4.34% | Control effect ([2]; amount 100 g active ingredient/mu, 10 days after application): 17.34% | Control effect ([2]; amount 100 g active ingredient/mu, 30 days after application): 14.47% | Control effect ([2]; amount 400 g active ingredient/mu, 10 days after application): 32.51% | Control effect ([2]; amount 400 g active ingredient/mu, 30 days after application): 25.37% | Quality: Polysaccharide ([3]; 50 g/mu): 8.79% | Quality: Total amino acid content ([3]; 50 g/mu): 7.53% | Yield of fresh Chinese wolfberry fruit: Weight per 100 fruits ([3]; 50 g/mu): 117.5 g | Yield of fresh Chinese wolfberry fruit: Yield ([3]; 50 g/mu): 2524.5 kg/mu | Quality: Polysaccharide ([3]; 100 g/mu): 9.54% | Quality: Total amino acid content ([3]; 100 g/mu): 7.68% | Yield of fresh Chinese wolfberry fruit: Weight per 100 fruits ([3]; 100 g/mu): 124.7 g | Yield of fresh Chinese wolfberry fruit: Yield ([3]; 100 g/mu): 2658.6 kg/mu | Disease (black fruit): Control effect ([4]; 50 g/mu, 10 days after application): 17.56% | Disease (black fruit): Control effect ([4]; 50 g/mu, 30 days after application): 10.99% | Disease (black fruit): Control effect ([4]; 100 g/mu, 10 days after application): 29.17% | Disease (black fruit): Control effect ([4]; 100 g/mu, 30 days after application): 21.35% | Quality: Linoleic acid ([5]; 30 g/mu): 44.52% | Quality: Protein ([5]; 30 g/mu): 22.91% | Yield ([5]; 30 g/mu): 285.3 kg/mu | Yield: Seed yield ([5]; 30 g/mu): 66.7% | Yield: Weight per 100 fruits ([5]; 30 g/mu): 113.4 g | Quality: Linoleic acid ([5]; 60 g/mu): 45.36% | Quality: Protein ([5]; 60 g/mu): 24.31% | Yield ([5]; 60 g/mu): 310.8 kg/mu | Yield: Seed yield ([5]; 60 g/mu): 69.1% | Yield: Weight per 100 fruits ([5]; 60 g/mu): 126.7 g | Disease (Stem rot): Control effect ([6]; 30 g/mu, 10 days after application): 20.41% | Disease (Stem rot): Control effect ([6]; 30 g/mu, 30 days after application): 6.21% | Disease (Stem rot): Control effect ([6]; 60 g/mu, 10 days after application): 31.29% | Disease (Stem rot): Control effect ([6]; 60 g/mu, 30 days after application): 11.58% | Disease (blight): Control effect ([7]; 10 days after application): 26.27% | Disease (blight): Control effect ([7]; 42 days after application): 10.26% | Quality: Amino acid [8]: 610.17 mg/100 kg | Quality: Vitamin C [8]: 17.32 mg/100 g | Yield: Total yield [8]: 3519 kg/mu | Yield: Weight of single fruit [8]: 21.7 g | Disease (rot): Control effect ([9]; 12 days after application): 21.35% | Disease (rot): Control effect ([9]; 45 days after application): 7.26%
